Test results as given in patent US6090987A, “Metal-ligand complex catalyzed processes” (Union Carbide Chemicals & Plastics Technology Corporation, priority 1998, dated 2000).

Legend:
[1] = Residual propylene hydroformylation activity after heat treatment, Ligand F catalyst (Table 1)
Method: A catalyst solution (100 milliliters) was generated in a six ounce Fisher Porter Bottle by dissolving 0.063 grams of rhodium dicarbonyl 2,4-pentanedionate, 0.8 grams of Ligand F, 20 grams of n-butyraldehyde, and 78.7 grams of tetraethylene glycol dimethyl ether, subsequently alternately evacuating and flushing with nitrogen; and finally adding 60 psi of CO:H2, and placing the bottles in a 100° C. oil bath for 1 hour.
(§1) After closing the reactor, the system was again purged with nitrogen and place in an oil bath heated to 100° C. The hydroformylation reaction in each experiment was conducted at a total gas pressure of 160 psig. The target partial pressure of hydrogen, carbon monoxide, and propylene being about 45 psia, 45 psia, and 5 psia respectively, with the remainder being nitrogen. The flows of the feed gases (carbon monoxide, hydrogen, propylene, and nitrogen) were controlled individually with mass flow meters. The feed gases were dispersed into the precursor solution via stainless steel 7-micron filters used as spargers. The unreacted portion of the feed gases stripped out the product aldehydes. Each experiment was operated for 24 hours under the above conditions. The activity is defined as the observed reaction rate divided by the predicted reaction rate. The reaction rates are expressed in terms of gram moles per liter per hour.
The same procedure as in Example 2 was followed with the exception that a slow stream of 1,2-propadiene was purged through the initially generated catalyst solution for 5 minutes. Excess was then removed by alternately evacuating and flushing with nitrogen. The resulting solution was heated at 125° C. as in Example 2, and 20 milliliters of the resulting solution was transferred to a glass reactor as in Example 2 and the activity determined.
(§2) The same procedure as in Example 3 was followed except 2 milliliters of 1,3-butadiene was added to the generated catalyst and stirred for 5 minutes. Excess 1,3-butadiene was then removed by alternate evacuation and flushing with nitrogen. The resulting solution was heated at 125° C. as in Example 2, and 20 milliliters of the resulting solution was transferred to a glass reactor as in Example 2 and the activity determined.
The same procedure as in Example 4 was followed with the exception that 50 milliliters of a catalyst solution generated as in Example 2 was treated with 0.5 milliliters of 2-methyl-1,3-butadiene (isoprene) in place of 1,3-butadiene.
A catalyst solution (20 milliliters) was generated in a Fisher Porter Bottle as in Example 2 under 60 psi CO:H2 for 1 hour, then cooled to room temperature and treated with 0.5 milliliters of 1,3-butadiene. The solution was removed from the Fisher Bottle by hypodermic syringe and transferred to a 100 milliliter stirred stainless vessel and maintained at 140° C. under 15 psi nitrogen for 14 hours. The resulting solution was then transferred to the glass reactors as in Example 2, and the residual catalyst activity measured. […]
The same procedure as in Example 8 was followed except allene was employed in place of 1,3-butadiene, and the resulting solution heated at 140° C. for 48 hours without removing excess allene.
A 20 milliliter sample of freshly generated catalyst solution (prepared as in Example 2) was charged to the glass reactors and the activity measured.
The same procedure as in Example 8 was followed except 0.4 grams of 1,3-cyclohexadiene was employed in place of 1,3-butadiene.

[2] = Residual propylene hydroformylation activity after heat treatment, Ligand D catalyst (Table 1); conditions: fresh catalyst control, no heat treatment
Method: as §1, with “About 20 milliliters of the solution was charged to a glass reactor via a syringe after purging the reactor with nitrogen (see Examples 14-20 below). After” for “After”
as §2
The same procedure as in Example 4 was followed except Ligand D (as identified herein) was employed in place of Ligand F. The results are given in Table 1.
The same procedure as in Example 10 was followed except the fresh catalyst solution contained Ligand D in place of Ligand F. The results are given in Table 1.

[3] = Decomposition of free Ligand F and deactivated complex formation at 145° C. by HPLC (FIG. 3); format: physicochemical; conditions: nitrogen 80 psig, no diene
Method: A catalyst solution (5 milliliters), 600 parts per million in rhodium and 0.8 weight percent in Ligand F generated as in Example 2 was charged to a 3 ounce Fisher Porter bottle and alternately flushed evacuated with nitrogen, then placed in a 145° C. oil bath under nitrogen (80 psig total pressure) and then monitored by HPLC at 1 and 3 hours for the Ligand F and deactivated complex concentrations. The free Ligand F concentration was 0.75, 0.57 and 0.37 weight percent at 0, 1 and 3 hours, respectively, while the deactivated complex concentration was 0.010, 0.57 and 0.89 weight percent at 0, 1 and 3 hours respectively.
The same procedure as in Example 21 was followed except the catalyst solution was treated with 1 milliliter of 1,3-butadiene and then heated at 145° C. for 3 hours (45 psig total pressure). The free Ligand F concentration measured by HPLC (high pressure liquid chromatography) was 0.75, 0.66, and 0.62 weight percent at 0, 1 and 3 hours, respectively, while the deactivated complex concentration was 0.010, 0.012, and 0.05 weight percent at 0, 1 and 3 hours respectively.

[4] = Propylene hydroformylation rate and colour of (TPP)3 Rh(CO)H catalyst after thermal treatment; conditions: for hydroformylation rate: control without butadiene, 100° C.; for color change of catalyst solution: control
Method: TPP is triphenylphosphine. 15 grams of this bright yellow solution was charged to a Fisher Porter bottle under inert gas. To this solution was added 20 psi of butadiene with stirring. The pressure dropped as the butadiene dissolved into the solution. The reactor was repressured twice with butadiene (20 psig) and then the reaction was place under a total of 45 psig with nitrogen. The solution was heated to 120° C. for 15 minutes. […] At ambient temperature, the reaction was placed under vacuum for 4 hours to remove any excess butadiene.
Since the solvent has a very high boiling point, the concentration of rhodium was assumed to have remained unchanged while under vacuum. Indeed, no change in volume was detected visually while under vacuum. 15.0 milliliters of the 275 parts per million solution was charged to a 100 milliliter autoclave.
This example is a control for Example 23. 15 grams of the catalyst solution prepared in Example 23 was charged to a Fisher Porter bottle under inert gas. 45 psig of nitrogen was added to the reaction vessel, then the reaction was heated to 120° C. for 15 minutes. […] 15.0 milliliters of the 275 parts per million solution was charged to a 100 milliliter autoclave.
A catalyst solution was prepared by adding 113 milligrams of (TPP)3 Rh(CO)H to 40.4 grams Filmer IBT® available from Union Carbide Corporation, Danbury, Conn., resulting in a rhodium concentration of 312 parts per million. At this point, the rhodium complex was a suspended in the solvent. Approximately 20 grams of this solution of (TPP)3 Rh(CO)H in tetraglyme was charged to a Fisher Porter bottle under inert gas. To this solution was added 30 psi of butadiene with stirring. The pressure dropped to 20 psig as the butadiene dissolved into the solution. The reactor was repressured twice with butadiene (30 psig) and then the pressure was adjusted to 60 psig with nitrogen. The solution was placed into 140° C. oil bath, which caused the reaction to become homogeneous within a minute. The reaction was maintained at 140° C. for 50 minutes. […] The reaction vessel was removed from the oil bath and the butadiene was vented from the reactor while the reaction was hot. After gas evolution ceased, the reaction vessel was placed carefully placed under dynamic vacuum until gas evolution had ceased for 10 minutes. The reaction was then placed under a slight positive pressure of nitrogen. […] 15.0 milliliters of the 284 parts per million solution was charged to a 100 milliliter autoclave.
This example serves as a control for Example 25. Approximately 20 grams of the solution prepared in Example 25 was charged to a Fisher Porter bottle under inert gas. 60 psig of nitrogen was added to the reaction vessel, then the reaction was heated to 140° C. for approximately 110 minutes. […] This solution was place into and out of the oil bath at the same time as the solution in Example 25. After thermal treatment, 10 weight percent of triphenylphosphine was added to the reaction mixture. […] 15 milliliters of the 284 parts per million solution was charged to a 100 milliliter autoclave.

[5] = 140° C./24 hours, excess diene present
[6] = 125° C./24 hours, no excess diene
[7] = 140° C./48 hours, excess diene present
[8] = 125° C./50 hours, no excess diene

For `C1=CCCC=C1` [1,3-cyclohexadiene], the “% Activity” value [1, 5] was 4.13% and the “Final Rate” value [1, 5] was 0.09 gram moles per liter per hour.

In the case of `C=C=C` [Allene, 1,2-propadiene], the “% Activity” value [1, 6] is reported as 101%, the “Final Rate” value [1, 6] is reported as 2.22 gram moles per liter per hour and the “% Activity” value [1, 7] is reported as 47.2%. For the same molecule, the “Final Rate” value [1, 7] was 1.03 gram moles per liter per hour.

With `C=CC(=C)C` [Isoprene, 2-methyl-1,3-butadiene] the “% Activity” value [1, 8] was 73.8% and the “Final Rate” value [1, 8] was 1.55 gram moles per liter per hour.

In the case of `COc1cc(-c2cc(OC)cc(C(C)(C)C)c2Op2oc3ccccc3c3ccccc3o2)c(Op2oc3ccccc3c3ccccc3o2)c(C(C)(C)C)c1` [Ligand D, 6,6'-[[3,3'-bis(1,1-dimethylethyl)-5,5'-dimethoxy-[1,1' -biphenyl]-2,2'-diyl]bis(oxy)]bis-dibenzo[d,f][1,3,2]dioxaphosphepin], the “Final Rate” value [2] is reported as 1.16 gram moles per liter per hour.

With `CC(C)(C)c1cc(-c2cc(C(C)(C)C)cc(C(C)(C)C)c2Op2oc3ccccc3c3ccccc3o2)c(Op2oc3ccccc3c3ccccc3o2)c(C(C)(C)C)c1` [Ligand F] the “% Activity” value [1, 6] was 10.0%, the “Final Rate” value [1, 6] was 0.22 gram moles per liter per hour and the “Final Rate” value ([1]; fresh catalyst control, no heat treatment) was 2.18 gram moles per liter per hour. For the same molecule, the deactivated complex concentration ([3]; 0 hours) was 0.010 weight percent, the “free Ligand F concentration” value ([3]; 0 hours) was 0.75 weight percent and the deactivated complex concentration ([3]; 1 hour) was 0.57 weight percent. The “free Ligand F concentration” value ([3]; 1 hour) was 0.57 weight percent, the deactivated complex concentration ([3]; 3 hours) was 0.89 weight percent and the “free Ligand F concentration” value ([3]; 3 hours) was 0.37 weight percent.

With `c1ccc(P(c2ccccc2)c2ccccc2)cc1` [triphenylphosphine, reference compound] the hydroformylation rate ([4]; after 120° C. for 15 minutes under nitrogen, 275 ppm Rh, 115 psig) was 0.8 gmol/L-h, the hydroformylation rate ([4]; after 140° C. for approximately 110 minutes, 284 ppm Rh, 95 psig) was 0.3 gmol/L-h and the “color change of catalyst solution” value ([4]; 120° C. for 15 minutes under nitrogen) was “turn from bright yellow to dark brown”. The “color change of catalyst solution” value ([4]; 140° C. for approximately 110 minutes under nitrogen) was “turn from bright yellow to dark brown”.
